± gives the expanded uncertainty stated by the source.
Conditions: Liquid, Ebulliometric method (Recirculating still)

Row | Compound | vapor or sublimation pressure (283.15 K) | vapor or sublimation pressure (293.15 K) | vapor or sublimation pressure (303.15 K) | vapor or sublimation pressure (313.15 K) | vapor or sublimation pressure (323.15 K)
1 | COC [dimethyl ether] | 372 ± 10 kPa | 501 ± 10 kPa | 687 ± 10 kPa | 898 ± 10 kPa | 1116.2 ± 10 kPa
2 | CI [iodomethane] | 30 ± 10 kPa | 47.5 ± 10 kPa | 69.9 ± 10 kPa | 95 ± 10 kPa | 129 ± 10 kPa
